{"source": "patent US4428950A", "about": "“(Hetarylphenoxy)-(phenylpiperazinyl)-propanols, their preparation and drugs containing these compounds” (BASF Aktiengesellschaft, priority 1981, dated 1984)", "key": {"blood pressure": {"test_system": "blood pressure", "assay": "Hypotensive action (blood pressure in carotid artery of rats under urethane narcosis)", "assay_type": "in vivo, rat (Sprague-Dawley)", "conditions": "for Hypotensive effect R.A. (relative activity): chlorpromazine = 1.00; for Hypotensive effect R.A. (relative activity) / ED20 / Hypotensive effect ED 20%: rat; for hypotensive action, doses compared with chlorpromazine / comparison with chlorpromazine, taking into account the hypotensive effect: in words; for ED20: read-out: Hypotensive effect ED 20%; for quotient of the sedative effective dose and the hypotensive effective dose, times more advantageous than for chlorpromazine: relative to chlorpromazine", "experimental": "The blood pressure was measured in the carotid artery. The substance was administered either by introduction into a jugular vein (as an aqueous solution, at the rate of 1 ml/kg) or intraperitoneally as a suspension in tragacanth (at the rate of 10 ml/kg). The ED 20%, ie. the dose which produces a 20% lowering of the blood pressure, was determined from the linear regression of log dose (mg/kg) and relative lowering of the blood pressure (Δ%)."}, "[1]": {"test_system": "orientation hypermotility", "assay": "Sedative action (orientation hypermotility induced by a new environment, mice)", "assay_type": "in vivo, mouse (NMRI, female)", "conditions": "for Sedative effect R.A. (relative activity): chlorpromazine = 1.00; for sedative-neuroleptic properties: according to Table 1; for effect in respect of sedation, % of that of chlorpromazine: relative to chlorpromazine", "experimental": "The substance was administered orally to 4-8 groups each comprising 3 female NMRI mice. The orientation hypermotility induced by a new environment is determined photoelectrically, 30 minutes after administration of the substance, over a period of 30 minutes. The ED 50%, ie. the dose which produces a 50% reduction in orientation hypermotility compared to placebo-treated control animals, is determined."}, "catalepsy": {"test_system": "catalepsy", "assay": "Cataleptic action (front extremities on 8 cm high bar, rats)", "assay_type": "in vivo, rat (Sprague-Dawley, female)", "conditions": "for ED50: ip, read-out: Cataleptic effect ED 50%; for Cataleptic effect R.A. (relative activity): chlorpromazine = 1.00; for effect in respect of catalepsy, % of that of chlorpromazine: relative to chlorpromazine", "experimental": "30, 60, 120 and 240 minutes after intraperitoneal administration of the substance, female Sprague-Dawley rats were placed with the front extremities on an 8 cm high bar. If, because of postural rigidity, the animals remain in this position for longer than 15 seconds, they are regarded as cataleptic."}, "histamine bronchospasm": {"test_system": "histamine bronchospasm", "assay": "Broncholytic action (histamine-induced bronchospasm, guineapigs under urethane narcosis)", "assay_type": "in vivo, guineapig (Pirbright white)", "conditions": "guineapig", "experimental": "Male or female guineapigs (Pirbright white, weight 300-500 g) under urethane narcosis (1.5 g/kg administered intraperitoneally) are subjected to artificial respiration using a tracheal cannula. Bronchospasms are caused by intravenous injection of histamine dihydrochloride (1.0-4.64 μg/kg), and an antagonistic effect on these can be brought about by prior intravenous administration of the test substance. The spasms are recorded by the method of Konzett and Rossler (Naunyn Schmiedeberg's Arch. 195 (1940), 71), via inductive pressure sensors."}, "[2]": {"conditions": "Table 2, sedative ED 50% vs hypotensive ED 20% i.p."}, "[3]": {"conditions": "ip, Table 2, i.p., dose which reduces the blood pressure by 20%"}, "[4]": {"conditions": "Table 2, mouse, oral, dose which reduces the motility by 50%, read-out: Sedative effect ED 50%"}, "[5]": {"conditions": "Table 2, sedative ED 50% vs hypotensive ED 20% i.v."}, "[6]": {"conditions": "iv, Table 2, i.v., dose which reduces the blood pressure by 20%"}, "[7]": {"conditions": "Table 1, mouse, oral, dose producing 50% reduction in orientation hypermotility, read-out: Sedative effect ED 50%"}, "[8]": {"conditions": "Table 1, rat, intraperitoneal, dose at which 50% of animals are cataleptic"}}, "note": "Where a name gives a salt, the structure may show the parent alone. Read-outs that look alike come from different tables or passages of the source.", "data": [{"smiles": "COc1ccccc1N1CCN(CC(O)COc2ccccc2-c2ccnc(N)n2)CC1", "note": "(stereo not drawn) [Example 5, 1-[2-(2-Aminopyrimidin-4-yl)-phenoxy]-3-[4-(2-methoxyphenyl)-piperazin-1-yl]-propan-2-ol]", "values": [{"measurement": "Hypotensive effect R.A. (relative activity)", "setting": "blood pressure; Table 2, i.p.", "value": 2.06}, {"measurement": "Q", "setting": "blood pressure; [2]", "value": 413}, {"measurement": "hypotensive action, doses compared with chlorpromazine", "setting": "blood pressure; Table 2", "value": "at lower doses than chlorpromazine"}, {"measurement": "ED20", "setting": "blood pressure; [3]", "value": 0.0795, "unit": "mg/kg"}, {"measurement": "doses at which sedative side-effect is observed relative to hypotensive doses", "setting": "[1]; Table 2", "value": "400-1,300 times greater"}, {"measurement": "Sedative effect R.A. (relative activity)", "setting": "[1]; Table 2, mouse, oral", "value": 0.06}, {"measurement": "ED50", "setting": "[1]; [4]", "value": 32.8, "unit": "mg/kg"}]}, {"smiles": "CN(C)CCCN1c2ccccc2Sc2ccc(Cl)cc21", "note": "[chlorpromazine, reference compound]", "values": [{"measurement": "Hypotensive effect R.A. (relative activity)", "setting": "blood pressure; Table 1, i.p.", "value": 1.0}, {"measurement": "Hypotensive effect R.A. (relative activity)", "setting": "blood pressure; Table 1, i.v.", "value": 1.0}, {"measurement": "Q (quotient of the sedative effective dose and the hypotensive effective dose)", "setting": "blood pressure; Table 1, hypotensive dose i.v.", "value": 81.1}, {"measurement": "Hypotensive effect ED 20%", "setting": "blood pressure; Table 1, i.p., dose producing 20% lowering of blood pressure", "value": 0.164}, {"measurement": "Hypotensive effect ED 20%", "setting": "blood pressure; Table 1, i.v., dose producing 20% lowering of blood pressure", "value": 0.026}, {"measurement": "Hypotensive effect R.A. (relative activity)", "setting": "blood pressure; Table 2, i.p.", "value": 1.00}, {"measurement": "Hypotensive effect R.A. (relative activity)", "setting": "blood pressure; Table 2, i.v.", "value": 1.00}, {"measurement": "Q", "setting": "blood pressure; [2]", "value": 13}, {"measurement": "Q", "setting": "blood pressure; [5]", "value": 81}, {"measurement": "ED20", "setting": "blood pressure; [3]", "value": 0.164, "unit": "mg/kg"}, {"measurement": "ED20", "setting": "blood pressure; [6]", "value": 0.026, "unit": "mg/kg"}, {"measurement": "Sedative effect R.A. (relative activity)", "setting": "[1]; Table 1, mouse, oral", "value": 1.0}, {"measurement": "Sedative effect ED 50%", "setting": "[1]; Table 1, mouse, oral, dose producing 50% reduction in orientation hypermotility", "value": 2.11}, {"measurement": "Sedative effect R.A. (relative activity)", "setting": "[1]; Table 2, mouse, oral", "value": 1.00}, {"measurement": "ED50", "setting": "catalepsy; Rattus norvegicus", "value": 4.3, "unit": "mg/kg"}, {"measurement": "Cataleptic effect R.A. (relative activity)", "setting": "catalepsy; Table 1, rat, intraperitoneal", "value": 1.0}]}, {"smiles": "COc1ccccc1N1CCN(CC(O)COc2cccc(-c3cc[nH]n3)c2)CC1", "note": "(stereo not drawn) [Example 15, 1-[3-(Pyrazol-3-yl)-phenoxy]-3-[4-(2-methoxyphenyl)-piperazin-1-yl]-propan-2-ol.3HCl]", "values": [{"measurement": "Hypotensive effect R.A. (relative activity)", "setting": "blood pressure; Table 2, i.v.", "value": 1.39}, {"measurement": "Q", "setting": "blood pressure; [5]", "value": "1,342"}, {"measurement": "hypotensive action, doses compared with chlorpromazine", "setting": "blood pressure; Table 2", "value": "at lower doses than chlorpromazine"}, {"measurement": "ED20", "setting": "blood pressure; [6]", "value": 0.0187, "unit": "mg/kg"}, {"measurement": "doses at which sedative side-effect is observed relative to hypotensive doses", "setting": "[1]; Table 2", "value": "400-1,300 times greater"}, {"measurement": "Sedative effect R.A. (relative activity)", "setting": "[1]; Table 2, mouse, oral", "value": 0.08}, {"measurement": "ED50", "setting": "[1]; [4]", "value": 25.1, "unit": "mg/kg"}]}, {"smiles": "OC(COc1ccc(-n2ccnc2)cc1)CN1CCN(c2ccc(F)cc2)CC1", "note": "(stereo not drawn) [Example 3, 1-[4-(Imidazol-1-yl)-phenoxy]-3-[4-(4-fluorophenyl)-piperazin-1-yl]-propan-2-ol]", "values": [{"measurement": "Hypotensive effect R.A. (relative activity)", "setting": "blood pressure; Table 1, i.p.", "value": 0.02}, {"measurement": "Q (quotient of the sedative effective dose and the hypotensive effective dose)", "setting": "blood pressure; Table 1, hypotensive dose i.p.", "value": 0.3}, {"measurement": "comparison with chlorpromazine, taking into account the hypotensive effect", "setting": "blood pressure", "value": "clearly superior to chlorpromazine"}, {"measurement": "ED20", "setting": "blood pressure; ip, Table 1, i.p., dose producing 20% lowering of blood pressure", "value": 10, "unit": "mg/kg"}, {"measurement": "quotient of the sedative effective dose and the hypotensive effective dose, times more advantageous than for chlorpromazine", "setting": "blood pressure", "value": 43, "unit": "times"}, {"measurement": "Sedative effect R.A. (relative activity)", "setting": "[1]; Table 1, mouse, oral", "value": 0.77}, {"measurement": "ED50", "setting": "[1]; [7]", "value": 2.75, "unit": "mg/kg"}, {"measurement": "sedative-neuroleptic properties", "setting": "[1]; in words", "value": "powerful sedative-neuroleptic properties"}, {"measurement": "effect in respect of sedation, % of that of chlorpromazine", "setting": "[1]", "value": 77, "unit": "%"}, {"measurement": "Cataleptic effect R.A. (relative activity)", "setting": "catalepsy; Table 1, rat, intraperitoneal", "value": 0.2}, {"measurement": "ED50", "setting": "catalepsy; [8]", "value": 21.5, "unit": "mg/kg"}, {"measurement": "effect in respect of catalepsy, % of that of chlorpromazine", "setting": "catalepsy", "value": 20, "unit": "%"}]}, {"smiles": "COc1cccc(N2CCN(CC(O)COc3ccc(-n4cncn4)cc3)CC2)c1", "note": "(stereo not drawn) [Example 1, 1-[4-(1,2,4-Triazol-1-yl)-phenoxy]-3-[4-(3-methoxyphenyl)-piperazin-1-yl]-propan-2-ol]", "values": [{"measurement": "ED50", "setting": "[1]; Mus musculus, po, read-out: sedative effect ED 50%", "value": 7.6, "unit": "mg/kg"}, {"measurement": "sedative action", "setting": "[1]; in words", "value": "relatively slight sedative action"}, {"measurement": "effect in respect of sedation, % of that of chlorpromazine", "setting": "[1]", "value": 28, "unit": "%"}, {"measurement": "inhibition of histamine bronchospasm (average)", "setting": "histamine bronchospasm; 0.1 mg/kg intravenously", "value": 87, "unit": "%"}, {"measurement": "broncholytic effect on the histamine bronchospasm", "setting": "histamine bronchospasm; in words", "value": "strong broncholytic effect"}]}, {"smiles": "COc1ccccc1N1CCN(CC(O)COc2ccccc2-c2cc[nH]n2)CC1", "note": "(stereo not drawn) [Example 10, 1-[2-(Pyrazol-3-yl)-phenoxy]-3-[4-(2-methoxyphenyl)-piperazin-1-yl]-propan-2-ol.HCl]", "values": [{"measurement": "Hypotensive effect R.A. (relative activity)", "setting": "blood pressure; Table 2, i.v.", "value": 0.79}, {"measurement": "Q", "setting": "blood pressure; [5]", "value": 442}, {"measurement": "hypotensive action, doses compared with chlorpromazine", "setting": "blood pressure; Table 2", "value": "at lower doses than chlorpromazine"}, {"measurement": "ED20", "setting": "blood pressure; [6]", "value": 0.0328, "unit": "mg/kg"}, {"measurement": "doses at which sedative side-effect is observed relative to hypotensive doses", "setting": "[1]; Table 2", "value": "400-1,300 times greater"}, {"measurement": "Sedative effect R.A. (relative activity)", "setting": "[1]; Table 2, mouse, oral", "value": 0.15}, {"measurement": "ED50", "setting": "[1]; [4]", "value": 14.5, "unit": "mg/kg"}]}, {"smiles": "OC(COc1ccc(-n2cncn2)cc1)CN1CCN(c2ccc(F)cc2)CC1", "note": "(stereo not drawn) [Example 2, 1-[4-(1,2,4-Triazol-1-yl)-phenoxy]-3-[4-(4-fluorophenyl)-piperazin-1-yl]-propan-2-ol]", "values": [{"measurement": "Hypotensive effect R.A. (relative activity)", "setting": "blood pressure; Table 1, i.v.", "value": 0.08}, {"measurement": "Q (quotient of the sedative effective dose and the hypotensive effective dose)", "setting": "blood pressure; Table 1, hypotensive dose i.v.", "value": 8.0}, {"measurement": "comparison with chlorpromazine, taking into account the hypotensive effect", "setting": "blood pressure", "value": "clearly superior to chlorpromazine"}, {"measurement": "ED20", "setting": "blood pressure; iv, Table 1, i.v., dose producing 20% lowering of blood pressure", "value": 0.316, "unit": "mg/kg"}, {"measurement": "quotient of the sedative effective dose and the hypotensive effective dose, times more advantageous than for chlorpromazine", "setting": "blood pressure", "value": 10, "unit": "times"}, {"measurement": "Sedative effect R.A. (relative activity)", "setting": "[1]; Table 1, mouse, oral", "value": 0.84}, {"measurement": "ED50", "setting": "[1]; [7]", "value": 2.52, "unit": "mg/kg"}, {"measurement": "sedative-neuroleptic properties", "setting": "[1]; in words", "value": "powerful sedative-neuroleptic properties"}, {"measurement": "effect in respect of sedation, % of that of chlorpromazine", "setting": "[1]", "value": 84, "unit": "%"}, {"measurement": "Cataleptic effect R.A. (relative activity)", "setting": "catalepsy; Table 1, rat, intraperitoneal", "value": 0.43}, {"measurement": "ED50", "setting": "catalepsy; [8]", "value": 10, "unit": "mg/kg"}, {"measurement": "effect in respect of catalepsy, % of that of chlorpromazine", "setting": "catalepsy", "value": 43, "unit": "%"}]}]}
